Reference: patent US20260132123A1, “ABAD INHIBITOR COMPOUNDS” (UNIVERSITY COURT OF THE UNIVERSITY OF ST ANDREWS, priority 2021, published 2026)
pEC50: −log10 of the molar value.

Legend:
17β-HSD10 [1] = molecular target: T1, 17β-HSD10 (Homo sapiens, UniProt Q99714); assay: 17β-HSD10 (ABAD) enzyme inhibition assay, NADH oxidation read at 340 nm (primary screen and dose response); assay type: biochemical; details: for Mean ABAD pIC50 / IC50: Table 5; for pEC50 / Max. Effect (%) / Hill Slope / Max. Fit / Min. Fit: recombinant 17βHSD10 enzyme assay; for Hill Slope / Max. Fit / Min. Fit: curve fit; for IC50: read-out: Mean ABAD pIC50 (converted)
T1 construct: Histev (histidine tag with TEV site) (N, cleaved yes); made in house; host or cells: E. coli BL21-CodonPlus
T1 sequence (Q99714 1-261): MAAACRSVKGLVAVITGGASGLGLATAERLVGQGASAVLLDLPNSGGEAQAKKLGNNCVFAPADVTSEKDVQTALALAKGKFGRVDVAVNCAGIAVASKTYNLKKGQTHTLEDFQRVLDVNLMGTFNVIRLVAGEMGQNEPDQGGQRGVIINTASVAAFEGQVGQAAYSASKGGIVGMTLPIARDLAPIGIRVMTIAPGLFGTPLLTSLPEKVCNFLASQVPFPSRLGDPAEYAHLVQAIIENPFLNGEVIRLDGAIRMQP
Method in brief: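 Tag-cleaved recombinant human 17β-HSD10 (2.5 nM) preincubated 15 min with compound in Tris pH 7.4, NaCl, DTT, Tween, BSA (catalase in some runs), then 100 μM acetoacetyl-CoA and NADH added. NADH oxidation by A340 fall: 35 min endpoint for screening at 10 μM; continuous 45 min for dose response.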

[2] = Mouse hepatocyte stability; assay type: in vitro ADME; design: k: unit not given here; details: for Heps Category: hepatocyte metabolism category, mouse; for Cl: clearance; for k: k=absorption rate constant (so in the source)
Text: (§1) Table 5: Initial mouse hepatocyte stability and plasma protein binding experiments were undertaken on some of the best exemplars from the representative series with AG18051 a previously published 17β-HSD10 inhibitor (C. R. Kissinger et al., J. Mol. Biol., 342 (2004), p. 943; Lim, Y.-A., Grimm, A., Giese, M. PLoS ONE (2011), 6, e28887.) Ref: shown for comparison. Where k=absorption rate constant Cl=clearance, T1/2=half-life, Heps=hepatocyte metabolism, PPB=plasma protein binding.

17β-HSD10 [3] = molecular target: T1, 17β-HSD10; assay: Mechanism of action against the substrates NADH and AcetoAcetyl CoA; assay type: biochemical
Experimental: To determine the kinetics for acetoacetyl-CoA and the effect of 17β-HSD10 concentration upon reaction rate, a matrix titration experiment was set up. Previously determined conditions were used with a fixed concentration of 700 μM NADH and a starting concentration of up to 200 μM acetoacetyl-CoA. Doubling dilutions of acetoacetyl-CoA were then coupled with doubling dilutions of 17β-HSD10, which started with a maximum concentration of 40 nM. Data collected from the experiment was analysed using a standard template, from which reaction progress curves were analysed to calculate initial velocities and obtain Km values using the Michaelis-Menten equation (XLFit, ID Business Solutions).
To determine the kinetics for NADH and the effect of 17β-HSD10 concentration upon reaction rate a matrix titration experiment was set up. Previously determined conditions (Aitken et al. 2017, supra) were used, 120 μM acetoacetate and a starting concentration of up to 1000 μM NADH. Doubling dilutions of NADH were then coupled with doubling dilutions of 17β-HSD10, which started with a maximum concentration of 40 nM. Data were analysed as described previously (Aitken et al. 2017, supra).
Two compounds, ESC1002033 and ESC1002082, representative of the two different clusters were investigated for their mechanism of action against the substrates, NADH and AcetoAcetyl CoA (AcAc). The ESC inhibitors were tested as 12-point 1 in 1.5 dilution series with a maximal concentration of 2.5 μM.

17β-HSD10 [4] = molecular target: T1, 17β-HSD10; assay: Thermal shift analysis; assay type: binding; details: 20 μM compound, 1 mM NADH
Experimental: Solutions containing compound at two concentrations (25 μM and 100 μM) added to assay buffer (50 mM Hepes, 0.5 M NaCl, pH 8.2, SYPRO orange 20 X, ±1 mM NADH) were plated in triplicate (25 μl per well) in MicroAmp 96-well plates (Thermo Fisher: 4346907). The plates were then sealed with optical grade sealing film (Thermo Fisher: 4311971) and loaded into a ViiA 7 RT-PCR machine ((Thermo Fisher: 4453534) (ramp speed 0.015° C./sec, 25-95° C.)). Data was exported to GraphPad PRISM and Tm values were calculated using the Boltzmann sigmoidal curve fit equation.
The ΔTm for one compound from each series is presented in FIG. 9 with a representative derivative plot of ESC1002033 and ESC1002082 in FIG. 9a.

[5] = molecular target: T2, 17β-HSD10 in HEK293 mts17β-HSD10 cells (Homo sapiens, UniProt Q99714); assay: (-)-CHANA enzyme activity cell based assay; details: cellular 17β-HSD10, HEK 293 cells, (-)-CHANA probe
T2 construct: expressed in transfected cells; host or cells: HEK293
T2 sequence (Q99714 1-261): T1 sequence (Q99714 1-261)
Experimental: HEK293 mts17β-HSD10 cells were seeded at a density of 10,000 cells per well (100 μL, 96 well black plates) in phenol-red free media (10% FBS, 1 mM sodium pyruvate, 100 units penicillin, 0.1 mg/mL streptomycin and 2 mM L-glutamine). After 24 hours the media was removed from the cells and replaced with fresh media containing varying concentrations of compound (100 μM-0.098 μM). The fluorogenic probe (-)-CHANA was then added to each well to give a final assay concentration of 20 μM. Fluorescence was immediately measured using a FLUOstar Optima microplate reader (excitation=380 nm, emission=520 nm, orbital averaging=3 mm) and the initial reaction monitored for 3-4 hours. IC50 was calculated from the control-subtracted triplicates using non-linear regression (four parameters) of GraphPad Prism 5 software. Final IC50 and SEM value was obtained as a mean of at least 3 independent measurements.
REF: (-)-CHANA, a Fluorogenic Probe for Detecting Amyloid Binding Alcohol Dehydrogenase HSD10 Activity in Living Cells Kirsty E. A. Muirhead, Mary Froemming, Xiaoguang Li, Kamil Musilek, Stuart J. Conway, Dalibor Sames, and Frank J. Gunn-Moore ACS Chemical Biology 2010 5 (12), 1105-1114DOI: 10.1021/cb100199m) to monitor the oxidative activity of 17β-HSD10 in living cells. […]

[6] = test system: SH-SY5Y (neuroblastoma cells); details: cited from earlier work
[7] = Mouse plasma protein binding; assay type: in vitro ADME
Text: as §1

Row | Compound | Mean ABAD pIC50 (17β-HSD10 [1]) | pEC50 (17β-HSD10 [1]) | Max. Effect (%) (17β-HSD10 [1]) | Hill Slope (17β-HSD10 [1]) | Max. Fit (17β-HSD10 [1]) | Min. Fit (17β-HSD10 [1]) | Heps Category [2] | Cl ([2]; mouse hepatocytes) [ml/minute/g liver] | k ([2]; mouse hepatocytes) | mode of binding with respect to NADH (17β-HSD10 [3]; AcAc in excess at 800 μM) | mode of binding with respect to AcAc (17β-HSD10 [3]; excess of 100 μM NADH) | ΔTm at 20 µM (17β-HSD10 [4]) [°C] | pEC50 [5] | IC50 (17β-HSD10 [1]) [µM] | fold improvement in activity / potency (17β-HSD10 [1]; relative to the parent compound of the sentence) [fold] | half-life ([2]; mouse hepatocytes, half-life) [min] | protection from Aβ mediated cytotoxicity [6] | T1/2 ([2]; mouse hepatocytes, half-life) [min] | Mouse PPB (% free) [7] [% free]
1 | CC(C)CN(C(=O)c1ccccc1F)c1cccc(N(C)Cc2cnc[nH]2)c1 [ESC1002033, 2-fluoro-N-[3-[1H-imidazol-5-ylmethyl(methyl)amino]phenyl]-N-isobutyl-benzamide] | 6.7 | 6.70 | 99 | 1 | 99 | −3 | Mod | 6.2 | 0.013 | non-competitively | competitively | 6.75 | – | – | – | – | – | – | –
2 | O=C(c1sccc1Cl)N1CCC[C@H]1c1ccccc1-c1cccc(O)c1 (single isomer, unassigned) [ESC1002755] | – | 7.70 | 95 | 1 | 93 | −2 | High | 105.8 | 0.22 | – | – | – | 7.55 | 0.0186 | 40 | 3.14 | – | – | –
3 | O=C(C(c1ccccc1)n1cnc2[nH]ncc2c1=S)N1CCCCCC1 (stereo not shown) [AG18051, reference compound] | – | – | – | – | – | – | High | 50.5 | 0.11 | – | – | – | – | – | – | – | protect cultured SH-SY5Y cells from Aβ mediated cytotoxicity | 6.58 | –
4 | O=C(c1sccc1Cl)N1CCC[C@H]1c1ccccc1-c1cc(O)ccc1F (single isomer, unassigned) [ESC1002842] | – | 7.39 | 102 | 1.1 | 98 | −3 | High | 83.1 | 0.17 | – | – | – | – | 0.0347 | – | 4 | – | – | 3.4
5 | O=C(c1[nH]ncc1Cl)N1CCC[C@H]1c1ccccc1-c1cccc(O)c1 (single isomer, unassigned) [ESC1002799] | – | 6.81 | 97 | 1.1 | 96 | −3 | High | 21.9 | 0.046 | – | – | – | – | 0.11 | – | 15.2 | – | – | 9.9
6 | CC(C)CN(C(=O)c1c(F)cccc1F)c1cccc(N(C)Cc2c[nH]cn2)c1 [ESC1002456, 2,6-difluoro-N-[3-[1H-imidazol-4-ylmethyl(methyl)amino]phenyl]-N-isobutyl-benzamide] | 6.86 | 6.86 | 97 | 1.2 | 96 | 17 | High | 8.6 | 0.018 | – | – | – | – | – | – | – | – | – | 8.9
